Measurements reported in US6600028B1, “Tricyclic base analogues” (Amersham Pharmacia Biotech UK Limited, priority 1997, dated 2003).
Where two headings read alike, the source gives them in different places.

Key:
[1] = test system: terminal deoxynucleotidyl transferase; assay: Oligonucleotide tailing reaction; assay type: biochemical; conditions: 64 μM dNTP or analogue triphosphate, 25 U enzyme, 90 minutes at 37° C.
Protocol: A 15 mer primer (sequence: 5′ TGC ATG TGC TGG AGA 3′) (SEQ ID NO. 6) and 8 to 32 base oligonucleotide markers were 5′ end labelled with [y^33P] ATP and T4 polynucleotide kinase. Reactions were boiled for 5 minutes after labelling to remove any PNK activity. Four picomoles of the labelled primer, 25 U terminal deoxynucleotidyl transferase and 64 μM dNTP or analogue triphosphate were incubated in 25 μl 100 mM cacodylate buffer pH7.2, 2 mM CoCl2 and 0.2 mM 2-mercaptoethanol for 90 minutes at 37° C. […] Autoradiography using Biomax film was carried out on the dry gel.

[2] = test system: ThermoSequenase DNA polymerase; assay: Cycle sequencing reactions with radiolabelled terminators; assay type: biochemical; conditions: for length of sequence obtained: dSTP 40 μM in place of dATP ("A" mix), dITP 37.5 μM or 8-oxo-dGTP 160 μM in place of dGTP
Protocol: The incorporation of dSTP and the pyrazolo compound (4.11) into DNA by ThermoSequenase™ DNA polymerase was examined in cycle sequencing reactions.
The following nucleotide mixes were made up:
a) Standard dNTP mix 7.5 μM dATP, dCTP, dGTP, dTTP
b) Standard dITP mix 7.5 μM dATP, dCTP, dTTP and 37.5 μM dITP
c) 8-oxo-dGTP mix 7.5 μM dATP, dCTP, dTTP and 160 μM 8-oxo-dGTP
d) dSTP “A” mix 7.5 μM dCTP, dGTP, dTTP and 40 μM dSTP
e) Compound (4.11) “A” mix 7.5 μM dCTP, dGTP, dTTP and 40 μM compound (4.11)
f) dSTP “G” mix 7.5 μM dATP, dCTP, dTTP and 80 μM dSTP
g) Compound (4.11) “G” mix 7.5 μM dATP, dCTP, dTTP and 80 μM compound (4.11)
The following reaction master mix was made up:
All reagents were from ThermoSequenase radiolabelled terminator cycle sequencing kit (US79750 Amersham life Science). [α^33P] ddNTP's were from Amersham Pharmacia Biotech (code AH9539).
All reactions were overlayed with mineral oil and then cycled as follows:
The reactions were then heated at 95° C. for 2 minutes before loading onto a 6% polyacrylamide 7M urea gel. The gel was run at 48 mA for 90 minutes. After fixing in 10% acetic acid/10% methanol the gel was dried and exposed to Kodak Biomax autoradiography film.

[3] = test system: 3′ to 5′ exonuclease-free version of Klenow fragment of DNA polymerase I (EFK); conditions: for primer extension product, analogue triphosphate as only nucleotide: Template 1, 20 μM or 80 μM analogue triphosphate alone, 37° C., 3 minutes
Protocol: b) A second primer extension assay was used to compare the triphosphate of the pyrrolo compound (1.14) (dSTP) with the triphosphate of the pyrazolo compound (4.11) as substrates for the 3′ to 5′ exonuclease-free version of Klenow fragment of DNA polymerase I (EFK). The assay used a ^33P 5′ end labelled 15 mer primer hybridised to one of two different 24 mer templates.
One picomole ^33P labelled primer was hybridised to 2 picomoles of template in ×2 Klenow buffer. To this was added either 4 μM dNTPαS, 20 μM or 80 μM analogue triphosphate or a mixture of 4 μM dNTPαS and 20 or 80 μM analogue triphosphate. Two units EFK and 2 mU inorganic pyrophosphatase were used per reaction. Primer alone, primer plus template, primer plus template plus enzyme controls were also carried out. The reactions were incubated at 37° C. for 3 minutes. Reactions were then stopped by the addition of formamide EDTA stop solution. Reaction products were separated on a 19% polyacrylamide 7M urea gel and the product fragments sized by comparison with a ^33P labelled 8 to 32 base oligonucleotide ladder after exposure to Kodak Biomax autoradiography film.

[4] = biological target: 3′ to 5′ exonuclease-free version of Klenow fragment (Escherichia coli, UniProt P00582, D355A/E357A); conditions: 50 μM dSTP, 37° C., 15 minutes, opposite T or C in template, not opposite A or G
Sequence of 3′ to 5′ exonuclease-free version of Klenow fragment (P00582 324-928 D355A/E357A): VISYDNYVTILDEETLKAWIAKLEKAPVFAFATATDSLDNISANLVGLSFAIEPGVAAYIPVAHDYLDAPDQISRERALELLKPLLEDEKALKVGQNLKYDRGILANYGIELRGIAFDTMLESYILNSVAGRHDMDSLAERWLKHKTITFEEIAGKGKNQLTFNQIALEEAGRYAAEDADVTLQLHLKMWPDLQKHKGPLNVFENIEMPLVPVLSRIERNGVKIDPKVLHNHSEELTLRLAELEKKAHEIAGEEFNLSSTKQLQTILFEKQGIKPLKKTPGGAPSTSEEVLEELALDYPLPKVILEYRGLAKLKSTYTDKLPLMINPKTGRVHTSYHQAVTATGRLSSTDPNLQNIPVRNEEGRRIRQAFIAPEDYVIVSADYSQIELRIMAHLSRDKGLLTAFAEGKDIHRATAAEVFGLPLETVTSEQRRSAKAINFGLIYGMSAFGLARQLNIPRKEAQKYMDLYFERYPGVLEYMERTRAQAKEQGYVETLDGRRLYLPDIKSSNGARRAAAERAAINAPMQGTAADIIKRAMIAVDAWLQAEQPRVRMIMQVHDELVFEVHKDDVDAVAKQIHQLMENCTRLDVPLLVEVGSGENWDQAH
Protocol: (§1) a) The incorporation of dSTP into DNA by DNA polymerases was examined in primer extension assays. […] Each reaction contained 1 pmol of a 24-mer oligonucleotide: 5′ […] (SEQ ID NO. 1) annealed to 0.25 pmol of a complementary 20-mer oligonucleotide 5′ […] (SEQ ID NO. 2) which was labelled at the 5′ end with 32P, and 1 μl of 10×buffer (for Taq polymerase: 500 mM KCl, 100 mM Tris pH 9 at room temperature, 1% Triton-X 100, 15 mM MgCl2; for the other two enzymes: 50 mM MgCl2, 100 mM Tris pH 7.5 at room temperature, 75 mM DTT). Normal dNTPs, in various combinations, were added, as required, to 50 μM final concentration; dSTP was also used at 50 μM final concentration.
(§2) For each enzyme four reactions were performed:
(§3) iv) plus dSTP, TTP and dCTP.
(§4) A single unit of the appropriate polymerase was added to start each of the reactions; these were incubated for 15 minutes (at 72° C. under mineral oil for Taq, at 37° C. for Pol I derivatives) before being terminated by the addition of 5 μl of termination mix (95% formamide, 20 mM EDTA, 0.05% Bromophenol Blue, 0.05% Xylene Cyanol FF). The reactions were heated to 70° C. for ten minutes before electrophoresis on a 20% polyacrylamide/7M urea gel, which was then exposed to autoradiography film.

[5] = biological target: T1, Klenow fragment of E. coli DNA polymerase I (Escherichia coli, UniProt P00582); assay: Primer extension assay, incorporation of dSTP into DNA by Klenow fragment; assay type: biochemical; conditions: 50 μM dSTP, 37° C., 15 minutes, opposite T or C in template, not opposite A or G
T1 construct: the Klenow fragment of E. coli DNA polymerase I (Boehringer Mannheim); purchased Boehringer Mannheim
T1 sequence (P00582 324-928): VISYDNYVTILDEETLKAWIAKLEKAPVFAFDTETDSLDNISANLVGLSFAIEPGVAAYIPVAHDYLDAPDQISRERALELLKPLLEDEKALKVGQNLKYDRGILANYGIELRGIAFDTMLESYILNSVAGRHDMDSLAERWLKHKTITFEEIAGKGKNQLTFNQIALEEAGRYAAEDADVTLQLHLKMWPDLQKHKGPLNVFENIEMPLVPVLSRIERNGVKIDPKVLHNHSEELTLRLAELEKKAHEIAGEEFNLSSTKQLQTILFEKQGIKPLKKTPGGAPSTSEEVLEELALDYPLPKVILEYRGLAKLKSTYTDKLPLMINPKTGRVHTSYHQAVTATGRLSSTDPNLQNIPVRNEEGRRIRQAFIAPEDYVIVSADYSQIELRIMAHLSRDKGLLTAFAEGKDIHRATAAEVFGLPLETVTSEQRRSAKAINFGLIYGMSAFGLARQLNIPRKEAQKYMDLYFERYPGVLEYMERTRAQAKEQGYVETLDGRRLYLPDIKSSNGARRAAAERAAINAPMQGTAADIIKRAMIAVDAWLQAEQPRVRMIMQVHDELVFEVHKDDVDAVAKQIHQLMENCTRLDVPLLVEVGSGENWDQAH
Protocol: as §1, §2, §3, §4

Taq polymerase = biological target: T2, Taq polymerase (Thermus aquaticus, UniProt P19821); assay: Primer extension assay, incorporation of dSTP into DNA by Taq polymerase; assay type: biochemical; conditions: 50 μM dSTP, 72° C., 15 minutes, opposite T or C in template, not opposite A or G
T2 construct: purchased Promega
T2 sequence (P19821 whole entry): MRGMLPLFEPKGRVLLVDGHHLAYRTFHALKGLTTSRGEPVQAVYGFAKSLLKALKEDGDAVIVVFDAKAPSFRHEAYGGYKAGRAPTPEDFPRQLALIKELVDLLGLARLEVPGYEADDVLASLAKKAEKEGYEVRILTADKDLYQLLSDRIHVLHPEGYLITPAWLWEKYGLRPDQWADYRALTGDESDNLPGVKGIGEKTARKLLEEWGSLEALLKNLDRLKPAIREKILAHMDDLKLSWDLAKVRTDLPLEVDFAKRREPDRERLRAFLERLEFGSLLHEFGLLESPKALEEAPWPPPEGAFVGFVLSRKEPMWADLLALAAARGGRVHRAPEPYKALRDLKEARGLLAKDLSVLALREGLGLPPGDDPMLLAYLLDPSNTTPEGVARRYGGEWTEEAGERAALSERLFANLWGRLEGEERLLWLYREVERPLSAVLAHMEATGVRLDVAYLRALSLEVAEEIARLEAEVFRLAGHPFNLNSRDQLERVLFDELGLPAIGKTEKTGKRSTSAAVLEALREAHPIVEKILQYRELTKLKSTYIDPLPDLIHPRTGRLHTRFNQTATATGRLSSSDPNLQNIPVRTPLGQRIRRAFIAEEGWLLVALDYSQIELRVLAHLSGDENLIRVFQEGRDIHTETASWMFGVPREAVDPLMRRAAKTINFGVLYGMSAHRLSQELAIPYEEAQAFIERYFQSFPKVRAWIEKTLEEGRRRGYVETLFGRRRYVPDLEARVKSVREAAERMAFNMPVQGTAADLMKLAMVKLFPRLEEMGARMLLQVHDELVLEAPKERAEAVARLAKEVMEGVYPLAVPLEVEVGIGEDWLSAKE
Protocol: as §1, §2, §3, §4

Compound: 1-(2′-deoxy-5′-O-triphosphate-ribofuranosyl)-pyrazolo[3,4-d]pyrimidine[2,3-c]dihydro-oxazepine [Compound 4.11]
- length of tail added to 15 mer primer [1]: predominantly by a single base

Compound: 9-(2′-Deoxy-5′-O-triphosphate-ribofuranosyl)-pyrrolo[4,3,2-de]pyrimido[4,5-c]dihydro-oxazepine [dSTP]
- length of sequence obtained ([2]; M13 mp18 template, 10 cycles): > 250 bases
- quality as polymerase substrate ([2]; conclusion from cycle sequencing, compared with dITP): very good polymerase substrate
- native base in whose place the analogue is incorporated ([3]; Template 1): efficiently incorporated in place of both G and A
- primer extension product, analogue triphosphate as only nucleotide [3]: +3 product
- native base in whose place the analogue is incorporated ([3]; Template 2): efficiently incorporated as a single G but that multiple additions as G are slow
- primer extension products with mixture of dTTPαS and analogue triphosphate ([3]; Template 2, no +1 product): +2, +3 and +5 products
- length of tail added to 15 mer primer [1]: intermediate in size between those of dATP and dGTP
- incorporation of dSTP into DNA [4]: can incorporate dSTP as either dGTP or as dATP
- incorporation of dSTP into DNA [5]: can incorporate dSTP as either dGTP or as dATP
- incorporation of dSTP into DNA (Taq polymerase): can incorporate dSTP as either dGTP or as dATP

Compound: Nc1nc2c([nH]c(=O)n2[C@H]2C[C@H](O)[C@@H](COP(=O)(O)OP(=O)(O)OP(=O)(O)O)O2)c(=O)[nH]1 [8-oxo dGTP, 8-oxo-dGTP]
- length of sequence obtained ([2]; M13 mp18 template, 10 cycles): 15-20 bases

Compound: O=P(O)(O)OP(=O)(O)OP(=O)(O)OCC1OC(n2nc3c4c(ncnc42)NOCC3)CC1O (stereo not shown) [Compound 4.11, 1-(2′-deoxy-5′-O-triphosphate-ribofuranosyl)-pyrazolo[3,4-d]pyrimidine[2,3-c]dihydro-oxazepine]
- further extension after incorporation of two analogue residues ([3]; Template 1): did not occur
- native base in whose place the analogue is incorporated ([3]; Template 1): behaving as A
- primer extension product, analogue triphosphate as only nucleotide [3]: did not extend
- primer extension product in the presence of dGTP ([3]; Template 1, analogue triphosphate plus dGTP): +3 product
- effect of incorporation of two analogue residues ([3]; Template 2): resulted in termination
- native base in whose place the analogue is incorporated ([3]; Template 2): behaved as A rather than G

Compound: Nc1ncnc2c1ncn2[C@H]1C[C@H](O)[C@@H](COP(=O)(O)OP(=O)(O)OP(=O)(O)O)O1 [dATP, reference compound]
- length of tail added to 15 mer primer [1]: greater than 100 bases

Compound: Nc1nc2c(ncn2[C@H]2C[C@H](O)[C@@H](COP(=O)(O)OP(=O)(O)OP(=O)(O)O)O2)c(=O)[nH]1 [dGTP, reference compound]
- length of tail added to 15 mer primer [1]: ~50 bases

Compound: O=c1[nH]cnc2c1ncn2[C@H]1C[C@H](O)[C@@H](COP(=O)(O)OP(=O)(O)OP(=O)(O)O)O1 [dITP]
- band intensities of sequence ([2]; M13 mp18 template, 10 cycles, autoradiography): uneven band intensities especially in the G track
- length of sequence obtained ([2]; M13 mp18 template, 10 cycles): < 200 bases
